Experimental data: PubChem BioAssay (NCI)
Where “and” joins values, the source holds several entries; their conditions need not be identical. Equal entries are not always repeated.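 Step 1: Grow cells in 96-well plates. Step 2: Expose to compound for 48 hours at 5 concentrations. Step 3: Interpolate endpoints linearly; if unreached, use highest concentration. Here, GI50 denotes the concentration required for 50% inhibition of growth. TGI marks complete inhibition of growth.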

Tests used:
Test in all cases: growth of human tumour cells (NCI), 48 h
UACC-257 melanoma = test system: UACC-257 melanoma
786-0 renal = test system: 786-0 renal
NCI-H226 lung = test system: NCI-H226 lung
MDA-MB-231 breast = test system: MDA-MB-231 breast
M14 melanoma = test system: M14 melanoma
SK-OV-3 ovarian = test system: SK-OV-3 ovarian
SF-539 CNS = test system: SF-539 CNS
LXFL 529 NSCLC = test system: LXFL 529 NSCLC
XF 498 CNS = test system: XF 498 CNS

Compound	GI50 (UACC-257 melanoma)	TGI (UACC-257 melanoma)	GI50 (786-0 renal)	TGI (786-0 renal)	GI50 (NCI-H226 lung)	TGI (NCI-H226 lung)	GI50 (MDA-MB-231 breast)	TGI (MDA-MB-231 breast)	GI50 (M14 melanoma)	TGI (M14 melanoma)	GI50 (SK-OV-3 ovarian)	TGI (SK-OV-3 ovarian)	GI50 (SF-539 CNS)	TGI (SF-539 CNS)	TGI (LXFL 529 NSCLC)	TGI (XF 498 CNS)
COC(=O)Nc1nc2ccc(Oc3ccc(NC(=O)Nc4cc(C(F)(F)F)ccc4F)cc3)cc2s1	> 25 µM	> 25 µM	> 25 µM	> 25 µM	> 25 µM	> 25 µM	9.05 µM	> 25 µM	2.83 µM	> 25 µM	> 25 µM	> 25 µM	> 25 µM	> 25 µM	–	–
CC1(C)OC2=C(CC1Br)C(=O)C(=O)c1ccccc12 (stereo not given)	1.76 µM	3.27 µM	1.91 µM	3.43 µM	1.7 µM	3.12 µM	2.35 µM	6.42 µM	1.9 µM	3.64 µM	1.96 µM	3.47 µM	1.82 µM	3.37 µM	–	–
CS(=O)(=O)CCNCc1ccc(-c2ccc3ncnc(Nc4ccc(OCc5ccccc5)cc4)c3c2)o1	4.38 µM	8.56 µM	4.35 µM	8.73 µM	13.2 µM	> 25 µM	4.82 µM	11.1 µM	4.89 µM	9.74 µM	0.401 µM	> 25 µM	4.91 µM	11 µM	–	–
O=C1C(Cl)=C(NCCN2CCOCC2)C(=O)c2ncccc21	1.37 µM	3.13 µM and 2.69 µM	2.5 µM	2.81 µM and 7.83 µM	–	5.14 µM and 3.74 µM	–	5.02 µM and 3.77 µM	–	3.17 µM and 3.25 µM	2.26 µM	3.36 µM and 7.23 µM	–	3.33 µM	–	–
C/C(CC(=O)Nc1cc(C)ccc1C)=N\NC(=O)c1ccncc1	–	> 100 µM	–	> 100 µM	–	> 100 µM	–	–	–	> 100 µM	–	> 100 µM	–	> 100 µM	> 100 µM	–
O=c1cc(-c2ccccc2)oc2cc(OC/C(=N/O)c3ccccc3)ccc12	> 50 µM	> 50 µM	26.1 µM	> 50 µM	23.5 µM	> 50 µM	6.98 µM	23.9 µM	> 50 µM	> 50 µM	12.1 µM	32.5 µM	10.8 µM	23.6 µM	–	–
Cc1ccc(-c2nc3nc(-c4ccccc4)nc(N4CCCNCC4)c3o2)cc1	1.72 µM	3.26 µM	1.52 µM	2.97 µM	1.87 µM	3.86 µM	1.81 µM	3.32 µM	1.96 µM	3.69 µM	1.81 µM	3.27 µM	1.82 µM	3.31 µM	–	–
C[N+]1=C(/C=C/c2ccc(O)c3ncccc23)C(C)(C)c2ccccc21	3.81 µM	13.5 µM	3.57 µM	13 µM	3.26 µM	12.9 µM	2.75 µM	11 µM	2.53 µM	7.7 µM	2.76 µM	12 µM	2.55 µM	10.3 µM	–	–
CCOC(=O)/C(=C\c1ccccc1)C(=O)O	–	> 100 µM	–	> 100 µM	–	> 100 µM	–	–	–	> 100 µM	–	> 100 µM	–	> 100 µM	–	> 100 µM
C/C(O)=C(\N=O)C(=O)Nc1ccc(Cl)cc1Cl	–	> 100 µM	–	> 100 µM	–	> 100 µM	–	–	–	> 100 µM	–	> 100 µM	–	> 100 µM	> 100 µM	–
CCN(CC)CCCC(C)Nc1c2ccc(Cl)cc2nc2ccc(O)cc12 (stereo not given)	1.7 µM	3.31 µM	2.77 µM	11.9 µM	2.53 µM	8.99 µM	2 µM	5.39 µM	1.56 µM	2.99 µM	3.12 µM	16 µM	1.63 µM	3.14 µM	–	–
O=C1Nc2ccccc2C1(c1ccc(O)cc1)c1ccc(O)cc1	25.3 µM	62 µM	26.7 µM	75.9 µM	12.8 µM	59.7 µM	20.3 µM	48.7 µM	20.1 µM	49.3 µM	22.8 µM	54.2 µM	18.5 µM	40.2 µM	–	–
CNC(=O)C1CCc2nnc(-c3ccccc3)n21 (stereo not given)	–	> 100 µM	–	> 100 µM	–	> 100 µM	–	–	–	> 100 µM	–	> 100 µM	–	> 100 µM	> 100 µM	–
Nc1nccc(-c2c(-c3ccc(F)cc3)ncn2C2CCC(O)CC2)n1 (stereo not given)	16.1 µM	> 25 µM	10.7 µM	> 25 µM	5.45 µM	24.5 µM	14.5 µM	> 25 µM	14 µM	> 25 µM	3.97 µM	12.2 µM	> 23.2 µM	> 25 µM	–	–
COc1cc2ncn(-c3cc(OCc4cccs4)c(C(N)=O)s3)c2cc1OC	3.15 µM	> 25 µM	4.86 µM	> 25 µM	7.13 µM	> 25 µM	2.21 µM	> 21.2 µM	1.82 µM	> 17.3 µM	1.81 µM	> 20 µM	1.23 µM	> 16.8 µM	–	–
COc1cc2cc(Oc3ccc(NC(=O)Nc4ccc(Cl)c(C(F)(F)F)c4)cc3)c(C)nc2cc1OCCN1CCOCC1	1.57 µM	4.55 µM	1.89 µM	4.15 µM	1.86 µM	5.91 µM	2 µM	5.07 µM	1.52 µM	3.45 µM	3.34 µM	17.5 µM	1.68 µM	3.26 µM	–	–
N#C/C(=C\c1ccc2ccccc2c1)c1ccccc1	–	> 100 µM	–	41.3 µM	–	> 100 µM	–	–	–	65.6 µM	–	70.7 µM	–	36.8 µM	> 100 µM	–
O=C(O)/C=C(\c1nc2ccc([N+](=O)[O-])cc2[nH]1)c1cc(Cl)ccc1O	2.37 µM	7.15 µM	3.77 µM	28.3 µM	2.32 µM	46.4 µM	2.11 µM	9.25 µM	2.78 µM	12 µM	2.44 µM	11.8 µM	3.1 µM	17.8 µM	–	–
COc1cc(C(=O)CBr)c(OC)cc1C	–	> 100 µM	–	> 100 µM	–	> 100 µM	–	> 100 µM	–	> 100 µM	–	> 100 µM	–	> 100 µM	–	–
